In brackets after ≈: the same amount, converted by molar mass. Activity calls are given as the source filed them. No cut-off for these calls is given here.
Tests used:
[1] = system: Pseudomonas aeruginosa; test: Antibiofilm activity against Pseudomonas aeruginosa ATCC 27853 after 24 hrs by crystal violet staining based assay; assay type: functional, organism-based
[2] = system: Escherichia coli; test: Antimicrobial activity against Escherichia coli ATCC 25922 at 1 mM preincubated for 6 hrs in presence of 2 ug/ml chymotrypsin and measured after 18 hrs by microplate reader analysis; assay type: functional, organism-based
[3] = system: Escherichia coli; test: Induction of outer membrane permeabilization in Escherichia coli ATCC 25922 measured up to 12 mins by NPN-dye based assay; assay type: organism-based
[4] = system: Escherichia coli; test: Antibiofilm activity against Escherichia coli ATCC 25922 at 2 times MIC after 24 hrs by crystal violet staining based assay; assay type: functional, organism-based
[5] = system: Escherichia coli; test: Potentiation of rifampicin-induced antibacterial activity against Escherichia coli ATCC 25922 assessed as FICI after 18 hrs by checker board assay; assay type: functional
[6] = system: Escherichia coli; test: Antimicrobial activity against Escherichia coli ATCC 25922 at 1 mM preincubated for 6 hrs in presence of 2000 ug/ml trypsin and measured after 18 hrs by microplate reader analysis; assay type: functional, organism-based
[7] = system: Escherichia coli; test: Antibiofilm activity against Escherichia coli ATCC 25922 after 24 hrs by crystal violet staining based assay; assay type: functional, organism-based
[8] = system: Bacillus subtilis; test: Antibacterial activity against Bacillus subtilis ATCC 23857 after 18 hrs by CLSI based broth microdilution method; assay type: functional; conditions: ATCC 23857, 18 h
[9] = system: Escherichia coli; test: Induction of membrane disruption in Escherichia coli ATCC 25922 assessed as fracture in membrane at 4 times of MIC after 2 hrs by SEM analysis; assay type: functional, organism-based
[10] = system: Escherichia coli; test: Ratio of antibacterial activity against Escherichia coli ATCC 25922 in presence of MgCl2 to antibacterial activity against Escherichia coli ATCC 25922; assay type: functional
[11] = system: Pseudomonas aeruginosa; test: Antibacterial activity against Pseudomonas aeruginosa ATCC 27853 after 18 hrs by CLSI based broth microdilution method; assay type: functional; conditions: ATCC 27853, 18 h
[12] = system: Staphylococcus aureus; test: Ratio of antibacterial activity against Staphylococcus aureus ATCC 25923 in presence of KCl to antibacterial activity against Staphylococcus aureus ATCC 25923; assay type: functional
[13] = system: Escherichia coli; test: Induction of ROS generation in Escherichia coli ATCC 25922; assay type: functional, organism-based
[14] = system: Pseudomonas aeruginosa; test: Potentiation of rifampicin-induced antibacterial activity against Pseudomonas aeruginosa ATCC 27853 assessed as FICI after 18 hrs by checker board assay; assay type: functional
[15] = system: Escherichia coli; test: Ratio of MIC for Escherichia coli ATCC 25922 preincubated for 6 hrs in presence of 10% mouse serum and measured after 18 hrs to MIC for antibacterial activity against Escherichia coli ATCC 25922 after 18 hrs; assay type: functional
[16] = Selectivity index, ratio of MHC10 for human RBC to geometric mean of peptide MIC for gram negative bacteria; assay type: toxicity; conditions: human red blood cells, read-out: Selectivity Index
[17] = system: Escherichia coli; test: Disruption of membrane integrity in Escherichia coli ATCC 25922 assessed as membrane damage by measuring PI fluorescence at 4 times of MIC incubated for 1 hr by PI dye based flow cytometric analysis (reference value: 1.35%); assay type: functional
[18] = system: Escherichia coli; test: Antibacterial activity against Escherichia coli ATCC 43837 after 18 hrs by CLSI based broth microdilution method; assay type: functional; conditions: ATCC 43837, 18 h
[19] = system: Klebsiella pneumoniae; test: Antibacterial activity against Klebsiella pneumoniae ATCC 700603 after 18 hrs by CLSI based broth microdilution method; assay type: functional; conditions: Klebsiella pneumoniae, 700603, 18 h
[20] = system: Escherichia coli; test: Induction of inner membrane permeabilization in Escherichia coli ATCC 43837 assessed as increase in ONPG release at 1 to 2 times of MIC by ONPG dye based assay; assay type: organism-based
[21] = system: Staphylococcus aureus; test: Ratio of antibacterial activity against Staphylococcus aureus ATCC 25923 in presence of FeCl3 to antibacterial activity against Staphylococcus aureus ATCC 25923; assay type: functional
[22] = system: Escherichia coli; test: Induction of membrane disruption in Escherichia coli ATCC 25922 assessed as corrugated membrane surface at 4 times of MIC after 2 hrs by SEM analysis; assay type: functional, organism-based
[23] = Selectivity index, ratio of MHC10 for human RBC to geometric mean of peptide MIC for gram positive bacteria; assay type: toxicity; conditions: human red blood cells, read-out: Selectivity Index
[24] = system: Staphylococcus aureus; test: Ratio of antibacterial activity against Staphylococcus aureus ATCC 25923 in presence of MgCl2 to antibacterial activity against Staphylococcus aureus ATCC 25923; assay type: functional
[25] = system: Escherichia coli; test: Induction of membrane disruption in Escherichia coli ATCC 25922 assessed as rough membrane surface at 4 times of MIC after 2 hrs by SEM analysis; assay type: functional, organism-based
[26] = system: Erythrocyte; test: Hemolytic activity in human RBC measured after 1 hr by microplate reader analysis; assay type: ADME, cell-based
[27] = system: DNA; test: Binding affinity to Escherichia coli ATCC 25922 genomic DNA after 30 mins by agarose gel electrophoresis; assay type: nucleic-acid assay
[28] = system: Escherichia coli; test: Ratio of antibacterial activity against Escherichia coli ATCC 25922 in presence of NaCl to antibacterial activity against Escherichia coli ATCC 25922; assay type: functional
[29] = system: Escherichia coli; test: Potentiation of polymyxin B-induced antibacterial activity against Escherichia coli ATCC 25922 assessed as FICI after 18 hrs by checker board assay; assay type: functional
[30] = system: Escherichia coli; test: Disruption of membrane integrity in Escherichia coli ATCC 25922 assessed as membrane damage by measuring PI fluorescence at 2 times of MIC incubated for 1 hr by PI dye based flow cytometric analysis (reference value: 1.35%); assay type: functional
[31] = system: Staphylococcus aureus; test: Antibacterial activity against methicillin-resistant Staphylococcus aureus 936 after 18 hrs by CLSI based broth microdilution method; assay type: functional; conditions: Staphylococcus aureus, 936, 18 h
[32] = system: Staphylococcus aureus; test: Ratio of antibacterial activity against Staphylococcus aureus ATCC 25923 in presence of NaCl to antibacterial activity against Staphylococcus aureus ATCC 25923; assay type: functional
[33] = system: Pseudomonas aeruginosa; test: Potentiation of polymyxin B-induced antibacterial activity against Pseudomonas aeruginosa ATCC 27853 assessed as FICI after 18 hrs by checker board assay; assay type: functional
[34] = system: Escherichia coli; test: Ratio of MIC for Escherichia coli ATCC 25922 preincubated for 1 hr in presence of 10% mouse serum and measured after 18 hrs to MIC for antibacterial activity against Escherichia coli ATCC 25922 after 18 hrs; assay type: functional
[35] = system: Klebsiella pneumoniae; test: Potentiation of polymyxin B-induced antibacterial activity against Klebsiella pneumoniae ATCC 700603 assessed as FICI after 18 hrs by checker board assay; assay type: functional
[36] = system: Pseudomonas aeruginosa; test: Antibiofilm activity against Pseudomonas aeruginosa ATCC 27853 at 0.25 to 2 times of MIC after 24 hrs by crystal violet staining based assay; assay type: functional, organism-based
[37] = system: Escherichia coli; test: Induction of membrane disruption in Escherichia coli ATCC 25922 assessed as degeneration in membrane at 4 times of MIC after 2 hrs by SEM analysis; assay type: functional, organism-based
[38] = system: Staphylococcus aureus; test: Antibiofilm activity against Staphylococcus aureus ATCC 25923 after 24 hrs by crystal violet staining based assay; assay type: functional, organism-based
[39] = system: Klebsiella pneumoniae; test: Potentiation of rifampicin-induced antibacterial activity against Klebsiella pneumoniae ATCC 700603 assessed as FICI after 18 hrs by checker board assay; assay type: functional
[40] = system: Escherichia coli; test: Induction of inner membrane permeabilization in Escherichia coli ATCC 43837 assessed as increase in ONPG release at 4 times of MIC by ONPG dye based assay; assay type: organism-based
[41] = system: Escherichia coli; test: Antibacterial activity against Escherichia coli ATCC 25922 at 0.5 times MIC incubated for 18 hrs measured for 15 passages by CLSI based broth microdilution method; assay type: functional, organism-based

Compound: CCCC(=O)NC(Cc1cn(CCCC[C@H](NC(C)=O)C(=O)NCC(=O)N[C@@H](CC(C)C)C(=O)N[C@@H](CC(C)C)C(=O)N[C@H](CCCCN)C(=O)N[C@@H](CCCNC(=N)N)C(=O)N[C@H](C(=O)N[C@H](CCCCN)C(=O)N[C@H](C(=O)N[C@@H](CC(C)C)C(=O)N[C@@H](CC(C)C)C(N)=O)[C@@H](C)O)[C@@H](C)CC)nn1)C(=O)NCC(=O)N[C@@H](CC(C)C)C(=O)N[C@@H](CC(C)C)C(=O)N[C@H](CCCCN)C(=O)N[C@@H](CCCNC(=N)N)C(=O)N[C@H](C(=O)N[C@H](CCCCN)C(=O)N[C@H](C(=O)N[C@@H](CC(C)C)C(=O)N[C@@H](CC(C)C)C(N)=O)[C@@H](C)O)[C@@H](C)CC (some centres not stated)
- inhibition [1]: Dose-dependent effect
- Activity [2]: Active
- Activity [3]: Dose-dependent effect
- inhibition [4]: Active
- fractional inhibitory concentration index (FICI) [5]: 0.3125
- Activity [6]: Active
- inhibition [7]: Dose-dependent effect
- MIC [8]: 4 µM (≈ 10.7 µg/mL)
- Activity [9]: Active
- Ratio [10]: 2 - 4
- MIC [11]: 8 µM (≈ 21.3 µg/mL)
- Ratio [12]: 2 - 4
- Activity [13]: Active
- fractional inhibitory concentration index (FICI) [14]: 0.375
- Ratio [15]: 1
- selectivity ratio [16]: 32
- Activity [17]: 43.2%
- MIC [18]: 8 µM (≈ 21.3 µg/mL)
- MIC [19]: 32 µM (≈ 85.4 µg/mL)
- Activity [20]: Active
- Ratio [21]: 2 - 4
- Activity [22]: Active
- selectivity ratio [23]: 5.91
- Ratio [24]: 2 - 4
- Activity [25]: Active
- MHC10 [26]: > 256 µM
- Activity [27]: Dose-dependent effect
- Ratio [28]: 2 - 4
- fractional inhibitory concentration index (FICI) [29]: 0.3125
- Activity [30]: 21.2%
- MIC [31]: 128 µM (≈ 342 µg/mL)
- Ratio [32]: 2 - 4
- fractional inhibitory concentration index (FICI) [33]: 0.375
- Ratio [34]: 1
- fractional inhibitory concentration index (FICI) [35]: 0.1875
- inhibition [36]: Active
- Activity [37]: Active
- inhibition [38]: Dose-dependent effect
- fractional inhibitory concentration index (FICI) [39]: 0.3125
- Activity [40]: Active
- Activity [41]: Active

Compound: CCCCCC(=O)NC(Cc1cn(CCCC[C@H](NC(C)=O)C(=O)NCC(=O)N[C@@H](CC(C)C)C(=O)N[C@@H](CC(C)C)C(=O)N[C@H](CCCCN)C(=O)N[C@@H](CCCNC(=N)N)C(=O)N[C@H](C(=O)N[C@H](CCCCN)C(=O)N[C@H](C(=O)N[C@@H](CC(C)C)C(=O)N[C@@H](CC(C)C)C(N)=O)[C@@H](C)O)[C@@H](C)CC)nn1)C(=O)NCC(=O)N[C@@H](CC(C)C)C(=O)N[C@@H](CC(C)C)C(=O)N[C@H](CCCCN)C(=O)N[C@@H](CCCNC(=N)N)C(=O)N[C@H](C(=O)N[C@H](CCCCN)C(=O)N[C@H](C(=O)N[C@@H](CC(C)C)C(=O)N[C@@H](CC(C)C)C(N)=O)[C@@H](C)O)[C@@H](C)CC (some centres not stated)
- inhibition [1]: Dose-dependent effect
- Activity [2]: Active
- Activity [3]: Dose-dependent effect
- inhibition [4]: Active
- fractional inhibitory concentration index (FICI) [5]: 0.5625
- Activity [6]: Active
- inhibition [7]: Dose-dependent effect
- MIC [8]: 4 µM (≈ 10.8 µg/mL)
- Activity [9]: Active
- Ratio [10]: 2 - 4
- MIC [11]: 8 µM (≈ 21.6 µg/mL)
- Ratio [12]: 2 - 4
- Activity [13]: inactive
- fractional inhibitory concentration index (FICI) [14]: 0.5
- Ratio [15]: 2
- selectivity ratio [16]: 51.2
- Activity [17]: 38.5%
- MIC [18]: 8 µM (≈ 21.6 µg/mL)
- MIC [19]: 16 µM (≈ 43.1 µg/mL)
- Activity [20]: Active
- Ratio [21]: 2 - 4
- Activity [22]: Active
- selectivity ratio [23]: 11.6
- Ratio [24]: 2 - 4
- Activity [25]: Active
- MHC10 [26]: > 256 µM
- Activity [27]: Dose-dependent effect
- Ratio [28]: 2 - 4
- fractional inhibitory concentration index (FICI) [29]: 0.375
- Activity [30]: 22.4%
- MIC [31]: 64 µM (≈ 173 µg/mL)
- Ratio [32]: 2 - 4
- fractional inhibitory concentration index (FICI) [33]: 0.3125
- Ratio [34]: 1
- fractional inhibitory concentration index (FICI) [35]: 0.1875
- inhibition [36]: Active
- Activity [37]: Active
- inhibition [38]: Dose-dependent effect
- fractional inhibitory concentration index (FICI) [39]: 0.5625
- Activity [40]: Active
- Activity [41]: Active
